Reference: PMC6030209, “Structure-Activity Investigations and Optimisations of Non-metabolite Agonists for the Succinate Receptor 1” (Scientific Reports, 2018)

Tests used:
[1] = target: T1, mSUCNR1 (Mus musculus, UniProt Q99MT6); assay: IP3 turnover assay in mSUCNR1 transfected HEK-293 cells; format: cell-based
T1 construct: FLAG (own knowledge: pCMV-Tag 2B is an N-terminal FLAG vector); host or cells: HEK-293, transient transfection with Lipofectamine-2000
T1 sequence (Q99MT6 1-317): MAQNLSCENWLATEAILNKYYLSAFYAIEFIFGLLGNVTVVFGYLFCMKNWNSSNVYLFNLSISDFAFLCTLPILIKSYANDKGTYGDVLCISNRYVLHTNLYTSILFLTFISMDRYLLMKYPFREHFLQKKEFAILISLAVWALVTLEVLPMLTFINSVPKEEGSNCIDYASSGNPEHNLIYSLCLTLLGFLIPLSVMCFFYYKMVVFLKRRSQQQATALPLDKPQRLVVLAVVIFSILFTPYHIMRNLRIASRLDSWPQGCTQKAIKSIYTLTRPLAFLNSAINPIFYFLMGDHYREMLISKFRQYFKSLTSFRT
Method: Receptor constructs for mSUCNR1 and hSUCNR1 were bought from Origene and cloned into the eukaryotic expression vector pCMV-Tag(2B) (Stratagene).
Transient transfection of the HEK-293 cells was done with Lipofectamine-2000 according to manufacturer’s protocol. Cells were supplemented with fresh medium after 5 h.
96-well plates were coated with poly-D-lysine and HEK-293 cells were plated (35.000 cells/well). Cells were transfected for 5 h the following day and subsequently incubated O/N with 0.5 μCi/mL myo[3H]inositol (Perkin Elmer) in 100 μL growth medium. On day 3 cells were washed with 200 µL HBSS/well (Gibco, Life Technologies) followed by a pre-incubation (30 min, 37 °C) with 100 µL HBSS supplemented with 10 mM LiCl. Cells were stimulated with ligand (120 min, 37 °C) and lysed with 50 µL 10 mM formic acid (30 min on ice). In a white 96 well plate 20 µL cell extracts and 80 µL 1:8 diluted YSi scintillation beads (Perkin Elmer) were mixed. The plate was spun down, and a Packard Top Count NXT counter recorded light emission (scintillation) after an 8 h delay.

[2] = physchem; format: physicochemical; conditions: pH 7.4, aqueous buffer, kinetic from dmso stock, 10 mM PBS7.4, 25 °C
Method: Duplicates of a 200 μM solution of the dicarboxylic acids were prepared from 0.01 M PBS7.4 and a 10 mM stock solution in DMSO. The samples were incubated in an Eppendorf® Thermomixer (25 °C, 800 rpm) for 24 h. Afterwards, the samples were centrifuged for 5 min at 11,000 rpm and the supernatant was filtered (0.45 μm PTFE membrane) before analysis by HPLC. The solubility was calculated based on a concentration-absorption curve.

[3] = format: physicochemical; conditions: after 70 hours in 10 mM PBS7.4, 37 °C
Method: Triplicates of a 50 μM solution of the test compounds were prepared from 0.01 M PBS7.4 and a 10 mM stock solution in DMSO. The samples were incubated in an Eppendorf® Thermomixer (37 °C, 650 rpm). The samples were briefly vortexed and 50 μL aliquots were withdrawn at the time points 0 h, 24 h, 48 h etc. and analysed immediately on UPLC. The chemical stability in PBS7.4 was determined at every time point in percentage relative to the 0 h time point.

[4] = logD7.4 determination (1-octanol/PBS7.4 shake flask); format: physicochemical; conditions: 1-octanol/PBS7.4, pH 7.4
Method: A glass vial with screw cap (8 mL) was charged with test compound (40 μL, 10 mM in DMSO), PBS7.4 (0.01 M, 1980 μL), and 1-octanol (1980 μL). The vial was capped and sealed with parafilm and shaken at 700 rpm using an IKA® KS 125 basic shaker for 24 h at room temperature. The parafilm was removed and the sample was allowed to equilibrate for 1 h before analysis. 100 μL of the octanol phase was withdrawn and diluted 1:10 with MeOH(+0.1% formic acid)/MilliQ water (4:1, v/v) and analysed by HPLC/UPLC. The interface was removed and the PBS7.4 phase analysed directly by HPLC/UPLC. All analysis was performed in duplicates and logD values were calculated from the peak areas (mAU*min) and adjusted for difference in injection volume and concentration-absorption effects from the solvents, using two calibration points per compound per solvent, and dilution of the octanol phase. All compounds were analysed in triplicates.

[5] = format: in vitro ADME; conditions: 2 hours, 37 °C
Method: FaSSIF, FeSSGF and FaSSGF were prepared in accordance to the manufacturers procedure, Biorelevant.com. Triplicates of a 50 μM solution of the test compounds were prepared from a 10 mM stock solution in DMSO diluted with FaSSGF/FaSSIF/FeSSIF. The samples were incubated in an Eppendorf® Thermomixer (37 °C, 650 rpm). Samples were withdrawn at 0 min and 120 min, centrifuged (10 min at 10,000 rpm) and the supernatant analysed by HPLC/UPLC. The stability was calculated based on peak area of a 0 point sample.

[6] = format: in vitro ADME, mouse; conditions: 1 hour, 1 μM, 0.5 mg/mL microsomes
Method: Microsomal stability was studied in mouse liver microsomes (0.5 mg/mL) at a final test compound concentration of 1 μM and performed in triplicates in accordance to the published protocol. In short: Prewarmed (37 °C) 0.1 M PBS7.4, 10 mM NADPH in PBS7.4 and test compound (1 mM in DMSO) were added to an Eppendorf® Tube. The samples were incubated for 5 min at 37 °C before addition of newly thawned microsomes. The samples were mixed by gentle vortexing and incubated for 1 h at 37 °C, 300 rpm in an Eppendorf® Thermomixer. Samples were quenched by addition of ice-cold MeOH/MeCN (1:1) and centrifuged for 5 min at 10,000 g. The supernatant was transferred to HPLC vials and stored in the freezer until analysis by HPLC/UPLC. The metabolic stability was calculated based on a 0 min sample. All compounds were analysed in triplicates.

[7] = system: SUCNR1; assay: Active/inactive grouping by EC50 threshold (ALiBERO training set, Table S1); format: cell-based; conditions: active (1) / inactive (0), EC50 threshold of 10 µM
Text: In brief, starting from the homology model supported by mutagenesis data[4], ALiBERO introduced receptor flexibility via Normal Mode Analysis and Monte Carlo sampling, to generate a small subset of receptor models (pockets). […] For a list of all compounds used in the optimisation protocol, see Table S1. Receptor structures were then chosen based on their ability to discriminate actives from inactives in a retrospective virtual screening using the docking protocol and scoring function in ICM (Molsoft L.L.C., San Diego, CA, USA)[20], as measured by the normalised square root area under the curve (NSQ_AUC). […] The ALiBERO-optimised receptor ensemble was subsequently validated in a virtual ligand screening using an external test set with a higher active:decoy ratio (~1:50).
ALiBERO is an iterative sampling-selection protocol for receptor optimisation that relies on the use of ligand information for selecting the best-performing receptor conformations. Homology models of the mouse SUCNR1 receptor were constructed according to Trauelsen et al.[4] and loaded into ICM (Molsoft L.L.C., San Diego, CA, USA). The structure was converted into an ICM object, thereby assigning protein atom types, optimising hydrogens and His, Pro, Asn, […] and Cys side-chain conformations. […] For a list of all compounds used in the optimisation protocol, see Table S1. ALiBERO was performed using the prepared receptor structure and ligand training set as input. Binding site residues were manually selected based on proximity to the position of MRS2500 in the superimposed structure of the P2Y1 receptor (PDB 4XNW). 100 elastic network normal mode analysis derived conformers were built in order to recreate backbone and side-chain flexibility (T = 300 K). Next, a flexible-ligand static-receptor small-scale virtual screening was performed on each of the receptor conformers, from which several pockets were selected for the following generation. The ligand and decoy molecules were docked into mSUCNR1, represented as pre-calculated potential grids and then sorted according to their ICM VLS scores. The maximum number of complementary pockets for each generation was set to 5 with a maximum of 10 generations. Receptor models were selected based on their combined screening performance, as determined by the normalised square root area under the curve, NSQ_AUC. After each round of virtual screening, an all-atom Monte Carlo side-chain refinement was performed to account for induced-by-ligand changes. NSQ_AUC values were calculated according to Katritch et al.[16].

[8] = system: SUCNR1; conditions: full agonist on SUCNR1; cited from earlier work

For `O=C(O)C[C@H](NC(=O)c1cccc(-c2ccc(OC(F)(F)F)cc2)n1)C(=O)O` [Compound 31, (6-(4-(Trifluoromethoxy)phenyl)picolinoyl)-L-aspartic acid], the EC50 [1] was 178 nM, the “mSUCNR1 efficacy, %” value ([1]; efficacy relative to succinate (100%), IP3 turnover, HEK cells (N = 3)) was 69.9 ± 2.2% and the solubility kinetic at 24 h [2] was greater than 200 µM. The chemical stability [3] was greater than 98%, the logD at 24 h [4] was -2.13 and the “stability in FaSSGF” value ([5]; simulated gastrointestinal fluid FaSSGF) was “stable”. For the same compound, the “stability in FaSSIF” value ([5]; simulated gastrointestinal fluid FaSSIF) was “stable”, the “stability in mouse liver microsomes” value [6] was “stable” and the Active [7] was 1 (active (1)).

For cis-epoxysuccinic acid, the EC50 [8] is listed as 2700 nM.
